Test results: PubChem BioAssay AID1259371 (The Scripps Research Institute Molecular Screening Center, 2018)
Activity calls are given as the source filed them. How the calls were made is not given here.

target: Microphthalmia-associated transcription factor (Homo sapiens) (UniProt O75030); test: MITF inhibitors, potency by titration, dose response, biochemical, AlphaScreen, human (AID 1259371); conditions: AlphaScreen biochemical MITF assay, signal inhibition
Sequence (O75030 whole entry, looked up): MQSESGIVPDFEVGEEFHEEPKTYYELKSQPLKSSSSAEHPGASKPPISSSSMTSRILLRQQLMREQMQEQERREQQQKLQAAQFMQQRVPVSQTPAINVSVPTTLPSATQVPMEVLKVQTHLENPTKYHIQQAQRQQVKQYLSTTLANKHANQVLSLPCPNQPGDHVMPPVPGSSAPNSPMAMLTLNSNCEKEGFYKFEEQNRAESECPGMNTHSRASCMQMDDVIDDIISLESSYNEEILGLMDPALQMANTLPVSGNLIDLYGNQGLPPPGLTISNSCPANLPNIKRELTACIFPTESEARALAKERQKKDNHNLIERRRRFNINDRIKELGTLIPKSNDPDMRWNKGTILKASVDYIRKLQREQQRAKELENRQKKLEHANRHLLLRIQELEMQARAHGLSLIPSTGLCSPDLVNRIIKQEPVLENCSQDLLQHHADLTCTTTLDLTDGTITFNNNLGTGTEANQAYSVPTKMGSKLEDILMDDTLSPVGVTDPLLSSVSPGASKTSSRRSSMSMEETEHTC

Row | SMILES | IC50
1 | O=C(/C=C/c1ccco1)NCC(=O)N/N=C/c1ccc(C(=O)O)cc1 | inactive
2 | CCC12c3ccccc3C(c3ccccc31)C1C(=O)NC(=O)C12 (stereo unspecified) | > 2.16 µM (inactive)
3 | Cc1ccc(C)n1C(Cc1c[nH]c2ccccc12)C(=O)O (stereo unspecified) | 0.68 µM
4 | c1coc(CNc2ccc3ncc(-c4ccco4)n3n2)c1 | inactive
5 | O=C(O)CCC(NCc1ccco1)C(=O)O (stereo unspecified) | 0.806 µM
6 | CCN(C(=O)C1COc2ccccc2O1)C12CC3CC(CC(C3)C1)C2 (stereo unspecified) | inactive
7 | O=C(NCC(c1cccs1)S(=O)(=O)c1ccc(Cl)cc1)c1ccco1 (stereo unspecified) | inactive
8 | CC[C@H](C)[C@@H]1NC(=O)[C@H]2CN(C(=O)NC3CCCCC3)CCN2C1=O | > 2.16 µM (inactive)
9 | N#Cc1cc([N+](=O)[O-])ccc1NC(=O)COC(=O)c1cc(-c2ccco2)nc2ccccc12 | inactive
10 | O=C(O)c1cc(C(=O)O)cc(-c2ccc(/C=N\n3cnnc3)o2)c1 | inactive
11 | C=CCc1cc(C)ccc1OCCCCn1ccnc1 | > 6.48 µM (inactive)
12 | CCOC(=O)C1CCCN(Cc2cccc(Br)c2)C1 (stereo unspecified) | > 6.48 µM (inactive)
13 | OC[C@H]1OC([S-])[C@H](O)[C@@H](O)[C@@H]1O.[Au+] (stereo partly specified) | inactive
14 | CN1C(=O)[C@H]2CN(C(=O)NC3CCCCC3)CCN2C(=O)[C@@H]1Cc1ccccc1 | inactive
15 | O=C(O)c1cccc2c1C(=O)N(c1ccccc1)C2 | inactive
16 | O=C(NCCc1ccc(O)cc1)c1ccnc(-c2cccs2)c1 | inactive
17 | CN(C)/C=C/C=C/C(=O)c1cccc(C(=O)/C=C/C=C/N(C)C)c1O | 0.303 µM
18 | Cc1ccc(O)c(NC(=S)NC(=O)/C=C/c2ccco2)c1 | > 6.48 µM (inactive)
19 | C=C1C(C(=O)NCc2ccco2)C1C(=O)NCc1ccco1 (stereo unspecified) | 0.573 µM
20 | CCOC(=O)C1C2NC(=S)N(c3ccc(CC)cc3)C1(C)Oc1c(OCC)cccc12 (stereo unspecified) | > 5.53 µM (inactive)
21 | C=CC1=C(C)C2=Cc3c(C=C)c(C)c4[n]3[Sn+2][n]3c(c(C)c(CCC(=O)O)c3=CC3=NC(=C4)C(C)=C3CCC(=O)O)=CC1=N2 | inactive
22 | O=C(Nc1ccc(N2CCOCC2)cc1)c1ccnc(Nc2ncccn2)c1 | inactive
23 | CC[C@H](C)[C@@H]1NC(=O)[C@H]2CN(C(=O)Nc3cccc(F)c3)CCN2C1=O | inactive
24 | CCN(CC)c1ccc(C(c2c(C)[nH][nH]c2=O)c2c(C)[nH][nH]c2=O)cc1 | 0.286 µM
25 | O=C(NCc1cccnc1)c1cccc(-c2cccs2)c1 | > 6.64 µM (inactive)
26 | CN=C1SC(CC(=O)Nc2cccc(C(=O)O)c2)C(=O)N1C (stereo unspecified) | inactive

Row | SMILES | IC50
27 | O=C(/C=C/c1ccco1)Nc1c[nH]c(=O)[nH]c1=O | inactive
28 | COC(=O)C1=C(C(=O)OC)C2c3ccccc3C=CN2C(C(=O)OC)=C1C(=O)OC (stereo unspecified) | > 4.07 µM (inactive)
29 | CCN(CCN(C)C)Cc1ccc(F)cc1 | > 6.48 µM (inactive)
30 | Oc1ccc(CCNc2cc(-c3cccs3)ncn2)cc1 | > 6.7 µM (inactive)
31 | CCN(CC)CC(=O)Nc1ccc(OC)cc1 | > 6.48 µM (inactive)
32 | O=[N+]([O-])c1ccc(Br)c2c1no[n+]2[O-] | inactive
33 | Cc1ccc([N+](=O)[O-])cc1S(=O)(=O)Nc1ccc(Nc2ncccc2[N+](=O)[O-])cc1 | 0.423 µM
34 | CN(C)/C=C/C=C/C=C/C(=O)c1ccc(C(=O)/C=C/C=C/C=C/N(C)C)cc1 | 0.0967 µM
35 | Cc1cc(N=Cc2ccc([N+](=O)[O-])o2)ccc1S(=O)(=O)O | inactive
36 | C=C1c2cccc(O)c2C(O)=C2C(=O)[C@]3(O)C(O)=C(C(N)=O)C(=O)[C@@H](N(C)C)[C@@H]3[C@@H](O)[C@H]12 | 0.0399 µM
37 | O=C1N[C@@H](COCc2ccccc2)C(=O)N2CCN(C(=O)NC3CCCCC3)C[C@H]12 | inactive
38 | CCOC(=O)N1CCN(C(=S)Nc2ccc(OCC)cc2)CC1 | inactive
39 | CCOC(=O)C1C2NC(=S)N(c3ccccc3)C1(C)Oc1cc(OC)ccc12 (stereo unspecified) | > 6.4 µM (inactive)
40 | N/C(=N\[N+](=O)[O-])N/N=C\c1ccc(-c2ccc(O)c(C(=O)O)c2)o1 | 0.129 µM
41 | O=C(C1CCC(Nc2nccc(-c3ccc4nc(C5CC5)[nH]c(=O)c4c3)n2)CC1)N1CCCC1 (stereo unspecified) | inactive
42 | O=C(O)c1ccc(O)c(C=Nc2ccc(N=Cc3cc(C(=O)O)ccc3O)cc2)c1 | inactive
43 | O=C1N[C@H](CO)C(=O)N2CCN(C(=O)NCc3ccccc3)C[C@H]12 | 0.526 µM
44 | Cc1cncc2c(S(=O)(=O)N3CC[C@@H](NC(=O)C(O)c4ccc(F)cc4F)C3)cccc12 (stereo partly specified) | inactive
45 | Clc1ccc(CN2CCN(Cc3c[nH]c4ccccc34)CC2)cc1 | inactive
46 | O=C(N/N=C/C=C/c1ccco1)c1ccncc1 | 0.0245 µM
47 | C/C(=N\Nc1ccc(S(=O)(=O)O)cc1)c1ccc([N+](=O)[O-])o1 | > 2.16 µM (inactive)
48 | Cc1cc(CSC(=N)N)c(O)c(C)n1 | 0.533 µM
49 | COc1ccc2c(c1)CC(C(=O)Nc1ccc(-c3cn[nH]c3)cc1OCC(N)=O)CO2 (stereo unspecified) | inactive
50 | CC(=O)CC1=C(C(=O)O)N2C(=O)C(N)C2SC1 (stereo unspecified) | > 6.48 µM (inactive)
51 | O=C(NCCN1CCOCC1)c1cccc(CN(C(=O)c2nc3ccc(-c4cn[nH]c4)cc3s2)C2CC2)c1 | inactive
52 | Cc1[nH][nH]c(=O)c1C(c1ccccc1OCc1ccc(Br)cc1)c1c(C)[nH][nH]c1=O | inactive

Row | SMILES | IC50
53 | O=C(c1ccc([N+](=O)[O-])cc1)N1CCN(Cc2cccc3ccccc23)CC1 | > 5.48 µM (inactive)
54 | NC(=O)C1CCN(C(=O)c2cc(-c3ccco3)nc3ccccc23)CC1 | 0.0453 µM
55 | O=C(O)c1coc(CNC(=O)c2cocc2C(=O)O)c1 | inactive
56 | CN(Cc1ccco1)S(=O)(=O)c1ccc2[nH]cc(C(=O)O)c(=O)c2c1 | inactive
57 | Cc1ccc(CCC(=O)Nc2ccc(-c3cn4c5c(nnc4n3)CCCC5)cc2)o1 | 0.306 µM
58 | C/C(=N\NC(=O)CC1=NNC(=O)C1)c1ccco1 | inactive
59 | Cc1[nH][nH]c(=O)c1C(c1ccc([N+](=O)[O-])o1)c1c(C)[nH][nH]c1=O | > 6.48 µM (inactive)
60 | O=C(O)COc1ccc(-n2cccc2)cc1 | 0.324 µM
61 | O=C1N[C@@H](CC2CCCCC2)C(=O)N2CCN(C(=O)NCc3ccccc3)C[C@H]12 | > 2.16 µM (inactive)
62 | Oc1ccc2c(c1)C1CCCC1(N1CCOCC1)O2 (stereo unspecified) | inactive
63 | NC1(C(Cl)(Cl)Cl)Oc2ccccc2O1 | 0.232 µM
64 | O=C(Nc1ccc(N2CCOCC2)cc1)c1cccc(Nc2ccncn2)n1 | inactive
65 | Cc1cc(C)nc(NS(=O)(=O)c2ccc(N3C(=O)C=CC3=O)cc2)n1 | > 2.16 µM (inactive)
66 | Cc1noc(C2CN(C(=O)c3ccc(-n4cccc4)cc3)C2)n1 | inactive
67 | O=C(Nc1cc(S(=O)(=O)O)cc2cc(S(=O)(=O)O)cc(O)c12)c1ccccc1 | 0.951 µM
68 | COc1ccc2c(c1)CC(C(=O)Nc1ccc(-c3cn[nH]c3)cc1OCc1ccccc1)CO2 (stereo unspecified) | inactive
69 | COc1cc(/C=C2\C(C)=C([N+](=O)[O-])CS2(=O)=O)ccc1O | 0.0308 µM
70 | Cc1ccc2[nH]c(=O)c(=O)[nH]c2c1 | > 12.1 µM (inactive)
71 | Cc1ccc(/C(C#N)=C\c2ccco2)cc1 | inactive
72 | O=C1N[C@@H](Cc2ccccc2)C(=O)N2CCN(C(=O)NC3CCCCC3)C[C@H]12 | inactive
73 | CCOC(=O)Cc1[nH]nc2c1C1(C(=O)N(CC)c3ccccc31)C(C#N)=C(N)O2 (stereo unspecified) | > 6.48 µM (inactive)
74 | O=C(c1cccc(F)c1)N1CCN(Cc2ccncc2)CC1 | > 5.66 µM (inactive)
75 | COc1ccc(CN2CCN(Cc3cccc(Cl)c3)CC2)cc1Br | inactive
76 | O=C(Cn1ncn2cccc2c1=O)N1CCc2ccccc2C1 | > 6.48 µM (inactive)
77 | O=C(NC1CCCCC1)N1CCN2C(=O)[C@@H]3CCCN3C(=O)[C@H]2C1 | inactive
78 | CCCCNCCOc1ccccc1OCC | > 6.48 µM (inactive)

Row | SMILES | IC50
79 | O=C(c1ccc2c(c1)C(=O)N(Cc1cccnc1)C2=O)c1ccc2c(c1)C(=O)N(Cc1cccnc1)C2=O | inactive
80 | O=C(CN1C(=O)NC2(CCCCCC2)C1=O)NC(=O)NCc1ccco1 | inactive
81 | O=C(OC1CCCC1=O)c1ccc(Cl)c(S(=O)(=O)N2CCOCC2)c1 (stereo unspecified) | inactive
82 | Cc1cccc(NC(=O)c2ccc(NS(=O)(=O)c3ccc4[nH]cc(C(=O)O)c(=O)c4c3)cc2)c1 | > 1.58 µM (inactive)
83 | COc1cccc(COC(=O)Nc2ccc(-c3cn[nH]c3)cc2N(C)CCN(C)C)c1 | inactive
84 | COc1ccc2c(c1)C1NC(=S)N(c3cccc(C)c3)C(C)(O2)C1C(=O)Nc1ccc(C)cc1C (stereo unspecified) | > 5.71 µM (inactive)
85 | CC(C)C[C@@H]1NC(=O)[C@H]2CN(C(=O)NC3CCCCC3)CCN2C1=O | 0.985 µM
86 | C[C@@H]1NC(=O)[C@H]2CN(C(=O)NCc3ccccc3)CCN2C1=O | inactive
87 | COc1nccnc1NS(=O)(=O)c1ccc(NC(=O)c2ccc([N+](=O)[O-])c(C)c2)cc1 | > 6.48 µM (inactive)
88 | CC(=O)NCC(c1cccs1)S(=O)(=O)c1ccc(C)cc1 (stereo unspecified) | inactive
89 | CCCCn1c(=O)[nH]c(=O)c2c1nc(-c1ccc([N+](=O)[O-])o1)n2C | 0.0666 µM
90 | Cc1ccc(C)n1C(CC(=O)O)c1ccsc1 (stereo unspecified) | 0.255 µM
91 | O=C(c1ccncc1)N1CCN(Cc2ccccc2[N+](=O)[O-])CC1 | > 6.13 µM (inactive)
92 | CC[C@@H]1NC(=O)[C@H]2CN(C(=O)NCc3ccccc3)CCN2C1=O | 0.436 µM
93 | CCN1CCN(CCOCCOc2ccc(F)cc2)CC1 | > 6.48 µM (inactive)
94 | O=C(OCN1C(=O)c2ccccc2C1=O)c1cc2c(s1)CCC2 | 0.734 µM
95 | CCOC(=O)c1cc(N2C(=O)C3C4C=CC(C4)C3C2=O)ccc1Cl (stereo unspecified) | inactive
96 | O=C(NCCc1ccc(O)cc1)c1cccc(-c2cccs2)c1 | > 6.26 µM (inactive)
97 | C/C(N)=C(/C#N)C(=O)COC(=O)c1c2c(nc3ccccc13)/C(=C/c1ccco1)CC2 | 0.443 µM
98 | C[C@H]1NC(=O)[C@H]2CN(C(=O)NCc3ccccc3)CCN2C1=O | inactive
99 | CN(C)CCS(=O)c1cc(-c2cn[nH]c2)ccc1NC(=O)[C@@H]1Cc2cc(F)ccc2CN1 (stereo partly specified) | inactive
100 | O=C(O)c1cc(S(=O)(=O)Nc2ccc3cn[nH]c3c2)ccc1O | inactive
101 | CN(C)CCOCCOc1ccccc1-c1ccccc1 | inactive
